pIC50: −log10 of the molar value.

What all share (format): cell-based
The subject of assay [1] is proinflammatory cytokine production in induced THP-1 cells. Kind of assay: induced THP-1. To be noted: at 10 μM.
Assay [2] concerns IL-33 production in induced THP-1 cells. Kind of assay: induced THP-1. The following applies: at 10 μM; THP-1 cells induced with LPS and TiO2.
Assay [3] deals with interleukin 6 (IL-6) production in induced THP-1 cells. Nature of the assay: induced THP-1.
The subject of assay [4] is IL-1β production in induced THP-1 cells. Nature of the assay: induced THP-1. The following applies: abstract, no concentration given.
Assay [5] relates to melanoma cell line LOX IMVI. Nature of the assay: NCI-DTP 60, LOX IMVI. To be noted: Homo sapiens, read-out: IC50 (cytotoxic).
Assay [6] deals with tumor necrosis factor-alpha (TNF-α) production in induced THP-1 cells. Kind of assay: induced THP-1. To be noted: abstract, no concentration given.
A further assay deals with leukemia cell line SR. Kind of assay: NCI-DTP 60, SR. To be noted: read-out: IC50 (cytotoxic).

Consider `CCCCCCCCCC(=O)[C@@H]1C(=O)O[C@@]2(C)C(=O)C=C3C=C(C[C@H](C)O)OC=C3[C@@H]12` [Compound 1, berkchaetoazaphilone A], for which the “effect on proinflammatory cytokine production” value in assay [1] is “no effect”.

`CCCCCCCCCC(=O)[C@@]12O[C@@]13C1=COC(C[C@H](C)O)=CC1=CC(=O)[C@]3(C)OC2=O` [Compound 2, berkchaetoazaphilone B]: the “inhibition of production of IL-33” value in assay [2] is “completely inhibited”. Moreover, the “IL-6 production in the induced inflammasome assay” value in assay [3] (abstract, no concentration given) is “inhibited”. The “inhibition of production of interleukin 6 (IL-6)” value in assay [3] (at 10 μM, THP-1 cells induced with LPS and TiO2) is “completely inhibited”. In assay [4], the “IL-1β production in the induced inflammasome assay” value was “inhibited”. Moreover, the pIC50 (in assay [5]; in the assay with leukemia cell line SR) was 5.00 in each case. Further, the “TNFα production in the induced inflammasome assay” value in assay [6] is reported as “inhibited”.

The term pIC50 denotes the IC50 on a negative log10 scale, so that one unit is a factor of ten.

The record behind these values is publication PMC5156323 (Journal of natural products, 2015).
